*1 amine or outer side, *2 acyl side, *3 side chain or, on linkers, in order; H or OH if unused. Where a SMILES comes first, the peptide text is derived from it. Side-chain parts run from the residue outwards. [ ]: non-standard residue; d: D form. The star is where a group is joined. C18 diacid = O=C(O)CCCCCCCCCCCCCCCCC(=O)*; γGlu = O=C(O)[C@H](CCC(=O)[*:2])N[*:1]; αMeL = CC(C)C[C@](C)(N)C(=O)O; αMeK = C[C@](N)(CCCCN)C(=O)O; Api = NC1(C(=O)O)CCNCC1; Dap = NC[C@H](N)C(=O)O; AEEA = NCCOCCOCC(=O)O
What was measured:
human CRF2a receptor = target: T1, human CRF2a receptor (Homo sapiens, UniProt Q13324); assay: Activity at human CRF2a receptor, cAMP functional assay in TeloHEAC cells; assay type: cell-based; details: TeloHEAC cells stably expressing human CRF2a receptor, relative to urocortin 2 (100 nM = 100%)
T1 construct: expressed in transfected cells; host or cells: TeloHEAC cells
T1 sequence (Q13324 1-411): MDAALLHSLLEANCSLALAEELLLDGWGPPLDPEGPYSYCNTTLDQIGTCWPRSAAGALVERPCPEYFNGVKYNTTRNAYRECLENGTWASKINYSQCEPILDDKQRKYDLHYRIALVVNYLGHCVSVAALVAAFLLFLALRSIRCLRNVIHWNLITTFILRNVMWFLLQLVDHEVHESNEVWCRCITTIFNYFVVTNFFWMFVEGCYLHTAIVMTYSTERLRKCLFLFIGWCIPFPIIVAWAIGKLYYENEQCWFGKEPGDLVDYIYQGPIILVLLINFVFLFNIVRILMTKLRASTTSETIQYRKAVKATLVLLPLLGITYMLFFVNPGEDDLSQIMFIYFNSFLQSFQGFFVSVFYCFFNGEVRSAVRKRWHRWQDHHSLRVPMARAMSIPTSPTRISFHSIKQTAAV
Method in brief: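 cAMP accumulation was measured by HTRF 665/620 nm ratio after 30 min at 37° C compound exposure (16 twofold dilutions) of CRF2a-expressing TeloHEAC cells, 10000/well, in HEPES-buffered HBSS plus IBMX. Activity was normalised to urocortin 2 at 100 nM (100%), and EC50 was the concentration giving half-maximal activation.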

CFR1R receptor = target: T2, CFR1R receptor (Homo sapiens, UniProt P34998); assay: Activity at anti-target CFR1R receptor, cAMP assay in CRF1R-overexpression CHO-K1 cells; assay type: cell-based; details: 100% = Sauvagine at 100 nM; for EC50: cAMP
T2 construct: host or cells: CHO-K1 (clone 2)
T2 sequence (P34998 24-415): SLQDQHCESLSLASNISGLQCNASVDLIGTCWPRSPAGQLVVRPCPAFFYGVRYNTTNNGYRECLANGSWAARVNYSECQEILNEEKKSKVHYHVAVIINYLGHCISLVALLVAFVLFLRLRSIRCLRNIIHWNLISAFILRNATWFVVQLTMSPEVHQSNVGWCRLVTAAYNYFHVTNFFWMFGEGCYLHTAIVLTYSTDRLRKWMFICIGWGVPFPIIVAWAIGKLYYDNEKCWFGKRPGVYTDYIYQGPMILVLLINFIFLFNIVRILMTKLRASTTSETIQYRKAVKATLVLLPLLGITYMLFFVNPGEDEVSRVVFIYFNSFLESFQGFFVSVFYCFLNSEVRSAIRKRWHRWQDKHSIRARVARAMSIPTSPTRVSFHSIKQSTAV
Method in brief: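 Signal is normalised to 100 nM Sauvagine, taken as 100% activation, in clone 2 cells plated at a final 4000 cells/well from frozen stocks.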

Row | EC50 (human CRF2a receptor) [nM] | Emax (% I) (CFR1R receptor) | EC50 (CFR1R receptor) [nM] | SMILES
1 | 0.35 | 6 | > 250 | CC[C@H](C)[C@H](NC(C)=O)C(=O)N[C@H](C(=O)N[C@@H](CC(C)C)C(=O)N[C@@H](CO)C(=O)N[C@@H](CC(C)C)C(=O)N[C@@H](CC(=O)O)C(=O)N[C@@H](C(=O)N1CCC[C@H]1C(=O)N[C@H](C(=O)N[C@@H](CCCCN)C(=O)N[C@@H](CC(C)C)C(=O)N[C@@H](CCCCNC(=O)COCCOCCNC(=O)COCCOCCNC(=O)CC[C@H](NC(=O)CCCCCCCCCCCCCCCCC(=O)O)C(=O)O)C(=O)N[C@@H](CCCCN)C(=O)N[C@H](C(=O)N[C@@H](CC(C)C)C(=O)N[C@@H](CC(C)C)C(=O)N[C@@H](CCC(=O)O)C(=O)N[C@@H](CCC(N)=O)C(=O)N[C@@H](CCC(=O)O)C(=O)N[C@@H](CCCCN)C(=O)N[C@@H](CCC(N)=O)C(=O)N[C@@H](CCCCN)C(=O)N[C@@H](CCCCN)C(=O)N[C@@H](CCC(N)=O)C(=O)N[C@@H](CCCNC(=N)N)C(=O)N[C@@H](CCC(=O)O)C(=O)N[C@@H](CCC(N)=O)C(=O)N[C@@H](C)C(=O)N[C@@H](CCC(=O)O)C(=O)N[C@H](C(=O)N[C@@H](CC(N)=O)C(=O)N[C@@](C)(CCCCN)C(=O)N[C@@H](CCC(N)=O)C(=O)N[C@H](C(=O)N[C@@H](CC(C)C)C(=O)N[C@@H](C)C(=O)N[C@@H](CCC(N)=O)C(=O)N[C@H](C(N)=O)C(C)C)[C@@H](C)CC)[C@@H](C)O)[C@@H](C)CC)[C@@H](C)CC)C(C)C)C(C)C [compound 106] (Ac-IVLSLD[dV]PIKLK([AEEA-AEEA-γGlu-C18 diacid])KILLEQEKQKKQREQAETN[αMeK]QILAQV-NH2)
2 | 1.43 | 0 | > 250 | CC[C@H](C)[C@H](NC(C)=O)C(=O)N[C@H](C(=O)N[C@@H](CC(C)C)C(=O)N[C@@H](CO)C(=O)N[C@@H](CC(C)C)C(=O)N[C@@H](CC(=O)O)C(=O)N[C@@H](C(=O)N1CCC[C@H]1C(=O)N[C@H](C(=O)N[C@@H](CCCCN)C(=O)N[C@@H](CC(C)C)C(=O)N[C@@H](CCCCNC(=O)COCCOCCNC(=O)COCCOCCNC(=O)CC[C@H](NC(=O)CCCCCCCCCCCCCCCCC(=O)O)C(=O)O)C(=O)N[C@@H](CCCCN)C(=O)N[C@H](C(=O)N[C@@H](CC(C)C)C(=O)N[C@@H](CC(C)C)C(=O)N[C@@H](CCC(=O)O)C(=O)N[C@@H](CCC(N)=O)C(=O)N[C@@H](CCC(=O)O)C(=O)N[C@@H](CCCCN)C(=O)N[C@@H](CCC(N)=O)C(=O)N[C@@H](CCCCN)C(=O)N[C@@H](CCCCN)C(=O)N[C@@H](CCC(N)=O)C(=O)N[C@@H](CCCNC(=N)N)C(=O)N[C@@H](CCC(=O)O)C(=O)N[C@@H](CCC(N)=O)C(=O)N[C@@H](C)C(=O)N[C@@H](CCC(=O)O)C(=O)N[C@H](C(=O)N[C@@H](CC(N)=O)C(=O)N[C@@H](CN)C(=O)N[C@@H](CCC(N)=O)C(=O)N[C@H](C(=O)N[C@@H](CC(C)C)C(=O)N[C@@H](C)C(=O)N[C@@H](CCC(N)=O)C(=O)N[C@H](C(N)=O)C(C)C)[C@@H](C)CC)[C@@H](C)O)[C@@H](C)CC)[C@@H](C)CC)C(C)C)C(C)C [compound 107] (Ac-IVLSLD[dV]PIKLK([AEEA-AEEA-γGlu-C18 diacid])KILLEQEKQKKQREQAETN[Dap]QILAQV-NH2)
3 | 1.14 | 4 | > 250 | CC[C@H](C)[C@H](NC(C)=O)C(=O)N[C@H](C(=O)N[C@@H](CC(C)C)C(=O)N[C@@H](CO)C(=O)N[C@@H](CC(C)C)C(=O)N[C@@H](CC(=O)O)C(=O)N[C@@H](C(=O)N1CCC[C@H]1C(=O)N[C@H](C(=O)N[C@@H](CCCCN)C(=O)N[C@@H](CC(C)C)C(=O)N[C@@H](CCCCNC(=O)COCCOCCNC(=O)COCCOCCNC(=O)CC[C@H](NC(=O)CCCCCCCCCCCCCCCCC(=O)O)C(=O)O)C(=O)N[C@@H](CCCCN)C(=O)N[C@H](C(=O)N[C@@H](CC(C)C)C(=O)N[C@@H](CC(C)C)C(=O)N[C@@H](CCC(=O)O)C(=O)N[C@@H](CCC(N)=O)C(=O)N[C@@H](CCC(=O)O)C(=O)N[C@@H](CCCCN)C(=O)N[C@@H](CCC(N)=O)C(=O)N[C@@H](CCCCN)C(=O)N[C@@H](CCCCN)C(=O)N[C@@H](CCC(N)=O)C(=O)N[C@@H](CCCNC(=N)N)C(=O)N[C@@H](CCC(=O)O)C(=O)N[C@@H](CCC(N)=O)C(=O)N[C@@H](C)C(=O)N[C@@H](CCC(=O)O)C(=O)N[C@H](C(=O)N[C@@H](CC(N)=O)C(=O)N[C@@H](CCC(=O)O)C(=O)N[C@@H](CCC(N)=O)C(=O)N[C@H](C(=O)N[C@@H](CC(C)C)C(=O)N[C@@H](C)C(=O)N[C@@H](CCC(N)=O)C(=O)N[C@H](C(N)=O)C(C)C)[C@@H](C)CC)[C@@H](C)O)[C@@H](C)CC)[C@@H](C)CC)C(C)C)C(C)C [compound 108] (Ac-IVLSLD[dV]PIKLK([AEEA-AEEA-γGlu-C18 diacid])KILLEQEKQKKQREQAETNEQILAQV-NH2)
4 | 1 | 4 | > 250 | CC[C@H](C)[C@H](NC(C)=O)C(=O)N[C@H](C(=O)N[C@@H](CC(C)C)C(=O)N[C@@H](CO)C(=O)N[C@@H](CC(C)C)C(=O)N[C@@H](CC(=O)O)C(=O)N[C@@H](C(=O)N1CCC[C@H]1C(=O)N[C@H](C(=O)N[C@@H](CCCCN)C(=O)N[C@@H](CC(C)C)C(=O)N[C@@H](CCCCNC(=O)COCCOCCNC(=O)COCCOCCNC(=O)CC[C@H](NC(=O)CCCCCCCCCCCCCCCCC(=O)O)C(=O)O)C(=O)N[C@@H](CCCCN)C(=O)N[C@H](C(=O)N[C@@H](CC(C)C)C(=O)N[C@@H](CC(C)C)C(=O)N[C@@H](CCC(=O)O)C(=O)N[C@@H](CCC(N)=O)C(=O)N[C@@H](CCC(=O)O)C(=O)N[C@@H](CCCCN)C(=O)N[C@@H](CCC(N)=O)C(=O)N[C@@H](CCCCN)C(=O)N[C@@H](CCCCN)C(=O)N[C@@H](CCC(N)=O)C(=O)N[C@@H](CCCNC(=N)N)C(=O)N[C@@H](CCC(=O)O)C(=O)N[C@@H](CCC(N)=O)C(=O)N[C@@H](C)C(=O)N[C@@H](CCC(=O)O)C(=O)N[C@H](C(=O)N[C@@H](CC(N)=O)C(=O)NC1(C(=O)N[C@@H](CCC(N)=O)C(=O)N[C@H](C(=O)N[C@@H](CC(C)C)C(=O)N[C@@H](C)C(=O)N[C@@H](CCC(N)=O)C(=O)N[C@H](C(N)=O)C(C)C)[C@@H](C)CC)CCNCC1)[C@@H](C)O)[C@@H](C)CC)[C@@H](C)CC)C(C)C)C(C)C [compound 109] (Ac-IVLSLD[dV]PIKLK([AEEA-AEEA-γGlu-C18 diacid])KILLEQEKQKKQREQAETN[Api]QILAQV-NH2)
5 | 2.58 | −3 | > 250 | CC[C@H](C)[C@H](NC(C)=O)C(=O)N[C@H](C(=O)N[C@@H](CC(C)C)C(=O)N[C@@H](CO)C(=O)N[C@@H](CC(C)C)C(=O)N[C@@H](CC(=O)O)C(=O)N[C@@H](C(=O)N1CCC[C@H]1C(=O)N[C@H](C(=O)N[C@@H](CCCCN)C(=O)N[C@@](C)(CC(C)C)C(=O)N[C@@H](CCCCNC(=O)COCCOCCNC(=O)COCCOCCNC(=O)CC[C@H](NC(=O)CCCCCCCCCCCCCCCCC(=O)O)C(=O)O)C(=O)N[C@@H](CCCCN)C(=O)N[C@H](C(=O)N[C@@H](CC(C)C)C(=O)N[C@@H](CC(C)C)C(=O)N[C@@H](CCC(=O)O)C(=O)N[C@@H](CCC(N)=O)C(=O)N[C@@H](CCC(=O)O)C(=O)N[C@@H](CCCCN)C(=O)N[C@@H](CCC(N)=O)C(=O)N[C@@H](CCCCN)C(=O)N[C@@H](CCCCN)C(=O)N[C@@H](CCC(N)=O)C(=O)N[C@@H](CCCNC(=N)N)C(=O)N[C@@H](CCC(=O)O)C(=O)N[C@@H](CCC(N)=O)C(=O)N[C@@H](C)C(=O)N[C@@H](CCC(=O)O)C(=O)N[C@H](C(=O)N[C@@H](CC(N)=O)C(=O)N[C@H](C(=O)N[C@@H](CCC(N)=O)C(=O)N[C@H](C(=O)N[C@@H](CC(C)C)C(=O)N[C@@H](C)C(=O)N[C@@H](CCC(N)=O)C(=O)N[C@H](C(N)=O)C(C)C)[C@@H](C)CC)C(C)C)[C@@H](C)O)[C@@H](C)CC)[C@@H](C)CC)C(C)C)C(C)C [compound 111] (Ac-IVLSLD[dV]PIK[αMeL]K([AEEA-AEEA-γGlu-C18 diacid])KILLEQEKQKKQREQAETNVQILAQV-NH2)

From patent publication US20260001928A1 (CORTERIA PHARMACEUTICALS, priority 2022, published 2026)
